Measurements taken from patent publication US20250262167A1, “COMPOUNDS, TARGETS AND PATHWAYS FOR MACROPHAGE MODULATION” (Massachusetts Institute of Technology, priority 2020, published 2025).
Like-named read-outs stand apart in the source and are kept apart here.

Tests used:
[1] = tested on: BMDMs (wild-type and Pkm−/−); settings: dose-dependent
Protocol: WT and Pkm^−/− BMDMs were not treated or treated with DPI (50 and 500 nM) for 24 hrs. The transcript levels of Pkm, Ldha, Hk2 and c-Myc were measured by real-time qPCR. Data were collected from two independent experiments with 3 biological replicates per group. Transcriptional level was normalized to β-actin first and then to DMSO control. Data are presented as the mean±sd. […] Transfected cells were not treated or treated with DPI (50 and 500 nM) for 6 hrs and luciferase activities were measured. Data are presented as the mean±sd (n=5). P values were calculated by student t-test. * P<0.05, ** P<0.01, *** P<0.001, **** P<0.0001.
To test this mechanism, we first determined if PKM2 is required for DPI-induced transcription of glycolytic genes. BMDMs were prepared from wild-type and Pkm^−/− mice, incubated with or without 50 and 500 nM DPI for 24 hours, and the transcript levels of key glycolytic genes were quantified by RT-PCR.
We also determined if c-Myc is induced by DPI in a PKM2-dependent manner. […] To determine whether DPI activates c-Myc transcriptional activity, we performed c-Myc luciferase reporter assays in the parental ImKCs and Pkm^−/− ImKCs.

Kupffer cells (KCs) = settings: HFD mice
Protocol: Single cell suspension was prepared from mice from FIG. 24A after 8 weeks on HFD (6 mice per group), stained with anti-F4/80, anti-CD11b and anti-Gr-1. F4/80^+CD11b^+Gr1^low macrophages were purified by cell sorting followed by RNAseq. Shown are differentially expressed genes among the three groups. […] M1-type polarization is expressed as positive scores whereas M2-type polarization is expressed as negative scores.
Mouse livers were dissected and digested with Collagenase IV (Roche). Single cell suspension was stained with anti-F4/80, anti-CD11b and anti-Gr-1. F4/80^+CD11b^+Gr1^low macrophages were sorted by flow cytometry (BD Aria). RNAs were extracted with RNeasy MinElute Kit (Qiagen), converted into cDNA and sequenced using Next-Generation Sequencing (Illumina). RNA-seq data were aligned to the human genome (version hg19) and raw counts of each genes of each sample were calculated with bowtie2 2.2.3 (Langmead et al. 2009) and RSEM 1.2.15 (Li et al. 2011). Differential expression analysis was performed using the program edgeR at P<0.05 with a two-fold change (Robinson et al. 2010). The gene expression level across different samples was normalized and quantified using the function of cpm. DEGs were annotated using online functional enrichment analysis tool DAVID (Huang et al. 2007).

[2] = tested on: human primary macrophages
Protocol: Total protein lysates were isolated from either mouse ImKCs with or without DPI treatment for 6 and 12 hrs or human primary macrophages with or without DPI treatment for 12 hrs at the indicated concentrations. Equal amounts of total proteins from whole-cell lysates were subjected to Western blotting analysis. β-actin was used as a loading control. Shown are representative data of two independent experiments. […] P values were calculated by student t-test. * P<0.05, ** P<0.01. n.s. not significant.
Proteins were extracted from cells with RIPA buffer. Protein concentration was quantified by BCA Protein Assay Kit (Pierce Biotechnology). Samples containing 20 μg total protein were resolved on a 10% SDS-PAGE gel and electro-transferred onto a PVDF membrane (Millipore Corporation). The membrane was blocked in 5% (w/v) fat-free milk in PBST (PBS containing 0.1% Tween-20). […] The blot was washed twice in PBST and then incubated with anti-Rabbit HRP-conjugated secondary antibody (Cell Signaling Technology, 1:2000) in 5% fat-free milk. The membrane was washed twice in PBST and subjected to protein detection by ECL Plus Western Blotting Detection System (GE Healthcare) before being exposed to a Kodak BioMax XAR film.

PKM2 = assay: PKM enzymatic activity (colorimetric kit) in treated ImKCs; type: cell-based, mouse; settings: parental ImKCs, 50 nM, β-arrestin2-dependent
Protocol: Data are presented as the mean±sd (n=4). […] Data are presented as the mean±sd (n=6).
FIGS. 29A-29B show comparison of DPI's effect on glycolysis in wild-type and Pkm^−/− BMDMs. […] FIGS. 29C-29D show activation of PKM2 and GAPDH enzymatic activity by DPI is inhibited by ERK1/2 inhibitor. ImKCs were treated with DMSO or DPI alone (500 nM) or DPI plus ERK1/2 inhibitor (SCH772984, […]) for 6 hrs and the enzymatic activities of PKM2 (c) and GAPDH (d) were measured by colorimetric assay kits (Biovision). Data are presented as the mean±sd (n=6).
The enzymatic activities of PKM and GAPDH were measured using the pyruvate kinase activity assay kit (Biovision, #K709) and GAPDH activity assay kit (Biovision, #K680) according to the manufacturer's protocols, respectively.

ImKCs = settings: 6 hours, dose-dependent
Protocol: ImKCs were treated with DPI for 6 hrs and select metabolites in the glycolytic pathway and TCA cycle were quantified by LC-MS. Data are presented as the mean±sd (n=4). P values were calculated by student t-test. * P<0.05, ** P<0.01, *** P<0.001, **** P<0.0001.
ImKCs were treated with DPI (500 nM) for 24 hrs and the select metabolites were quantified by LC-MS. Shown are representative data of two independent experiments. P values were calculated by student t-test. * P<0.05, ** P<0.01. n.s. not significant.
ImKCs were treated with DPI (#81050, Cayman) at 50 or 500 nM for 6 hrs or 24 hrs. Cells were washed once in ice-cold 0.9% NaCl and lysates were extracted in 80% methanol solution containing internal standards for LC/MS by scraping on dry ice followed by 10-minute mixing with vortex in 4° C. Following lysate extraction, debris were removed by high-speed centrifugation and supernatant was dried using speedvac. Samples were analyzed by LC/MS on QExactive Orbitrap instruments (Thermo Scientific) in Whitehead Institute metabolite profiling core facility.

[3] = tested on: hMDM with anti-CD20 labelled human B lymphoma cells (GMB); assay: ADCP of human macrophages; type: cell-based; set-up: dose or concentration left out as unconfirmed; settings: co-culture 2 hrs
Protocol: Conditioned medium (CM) was collected and filtered. B16F10 melanoma cells were cultured for 12 hrs with CM or CM heat-inactivated at 95° C. for 5 min. The number of tumor cells were quantified by flow cytometry. Data were summarized from two independent experiments. * P<0.05 by T-test. P values are shown based on t-test. […] Mouse BMMs (FIG. 14B) or hMDM (FIG. 14C) were treated with […] thiostrepton for 24 hrs, then co-cultured with equal number of eFluro670 and anti-CD20 labelled human B-cell lymphoma cells for 2 hrs, and analyzed by flow cytometry. Macrophages that have phagocytosed tumor cells are identified as efluro670+ and CD14+. Shown are representative eFluro670 histograms gating on CD14+ macrophages from three different experiments.
To examine whether thiostrepton-activating macrophages or conditioned medium have effects on tumor cell growth, BMMs were treated with thiostrepton for 24 hrs. Equal numbers of primed BMMs and melanoma cells (B16F10) were co-cultured for 12 hrs. […] Thiostrepton elevated ADCP of both human and mouse macrophages (FIGS. 14B-14C).

B16F10 melanoma cells = assay: Tumor growth inhibition by treated macrophages or their conditioned medium; type: cell-based, mouse
Protocol: DEGs were identified by edgeR at P<0.05 with at least 2 fold-change. Data for genes that were not classified as differentially expressed are plotted in black. […] Mouse BMMs were cultured in normal medium with or without 2.5 μM thiostrepton for 24 hrs (group 1), or cultured in B16F10 tumor cell conditioned medium (CM) with or without 2.5 μM thiostrepton for 24 hrs (group 2), or cultured with B16F10 tumor cell CM for 24 hrs first and then treated with 2.5 μM thiostrepton for another 24 hrs (group 3). The transcript levels of the indicated genes were quantified by qPCR. Data were summarized from two independent experiments. […] Mouse BMMs were treated with thiostrepton for 24 hrs. […] The number of tumor cells were quantified by flow cytometry after subtracting macrophages from total number of cells. […]
Conditioned medium (CM) was collected and filtered. […] The number of tumor cells were quantified by flow cytometry. […] Mouse BMMs (FIG. 14B) or hMDM (FIG. 14C) were treated with […] thiostrepton for 24 hrs, then co-cultured with equal number of eFluro670 and anti-CD20 labelled human B-cell lymphoma cells for 2 hrs, and analyzed by flow cytometry. […]
Mouse bone marrow-derived macrophages (mBMM) were prepared as described previously^54. […] Expression of Arg, Fizz1 and Vegfa were quantified by qPCR to assess the development of TAMs. […]

c1ccc2c(c1)[I+]c1ccccc1-2 [Diphenyleneiodonium chloride]
transcription of c-Myc [1]: stimulated the transcription | blood glucose (15 and 30 min after glucose injection): significantly lower levels | blood glucose (6 hours after DPI 2 mg/kg i.p.): significantly lower level | expression of genes involved in glycolysis, oxidative phosphorylation and fatty acid metabolism in KCs (Kupffer cells (KCs)): upregulated | expression of genes involved in inflammation in KCs (Kupffer cells (KCs)): significantly suppressed | macrophage polarization index (MPI) of KCs (Kupffer cells (KCs)): reprogrammed to an intermediated phenotype | transcription of genes in the glycolysis pathway ([2]; 50 nM, 24 hours, RNAseq): stimulates transcription | HK, GAPDH, LDHA and enolase at the protein level ([2]; human primary macrophages, dose- and time-dependent): upregulation | PKM2 enzymatic activity (PKM2): immediate increase | glucose level (ImKCs): decreased significantly | levels of TCA cycle intermediates (ImKCs): all decreased | levels of glycolysis intermediates (G6P, F1,6BP, G3P, pyruvate, lactate) (ImKCs): increased significantly

C=C(NC(=O)C(=C)NC(=O)c1csc(C2=N[C@@H]3c4csc(n4)[C@H]4NC(=O)c5csc(n5)[C@H]([C@](C)(O)[C@@H](C)O)NC(=O)[C@H]5CSC(=N5)/C(=C/C)NC(=O)[C@H]([C@@H](C)O)NC(=O)c5csc(n5)[C@]3(CC2)NC(=O)[C@H](C)NC(=O)C(=C)NC(=O)[C@H](C)NC(=O)[C@H]([C@@H](C)CC)N[C@@H]2C=Cc3c([C@H](C)O)cc(nc3[C@H]2O)C(=O)O[C@@H]4C)n1)C(N)=O [Thiostrepton]
ADCP [3]: elevated | melanoma cells in conditioned medium from treated macrophages (B16F10 melanoma cells; 12 hrs, vs untreated or heat-inactivated conditioned medium): more melanoma cells were lost | melanoma cells after co-culture with treated macrophages (B16F10 melanoma cells; BMMs treated 24 hrs, co-culture 12 hrs, vs untreated macrophages, dose-dependent): Significantly more melanoma cells were lost
